target: T1, rat NaPi-2b (Rattus norvegicus, UniProt Q9JJ09); assay: Sodium-dependent phosphate uptake of Xenopus oocytes which expressed NaPi-2b (32P); assay type: cell-based; settings: Xenopus oocytes expressing rat NaPi-2b, 32P radioactive phosphorus; read-out: IC50 (phosphate uptake inhibitory activity)
T1 construct: expressed in transfected cells; host or cells: Xenopus oocytes injected with cRNA
T1 sequence (Q9JJ09 1-695): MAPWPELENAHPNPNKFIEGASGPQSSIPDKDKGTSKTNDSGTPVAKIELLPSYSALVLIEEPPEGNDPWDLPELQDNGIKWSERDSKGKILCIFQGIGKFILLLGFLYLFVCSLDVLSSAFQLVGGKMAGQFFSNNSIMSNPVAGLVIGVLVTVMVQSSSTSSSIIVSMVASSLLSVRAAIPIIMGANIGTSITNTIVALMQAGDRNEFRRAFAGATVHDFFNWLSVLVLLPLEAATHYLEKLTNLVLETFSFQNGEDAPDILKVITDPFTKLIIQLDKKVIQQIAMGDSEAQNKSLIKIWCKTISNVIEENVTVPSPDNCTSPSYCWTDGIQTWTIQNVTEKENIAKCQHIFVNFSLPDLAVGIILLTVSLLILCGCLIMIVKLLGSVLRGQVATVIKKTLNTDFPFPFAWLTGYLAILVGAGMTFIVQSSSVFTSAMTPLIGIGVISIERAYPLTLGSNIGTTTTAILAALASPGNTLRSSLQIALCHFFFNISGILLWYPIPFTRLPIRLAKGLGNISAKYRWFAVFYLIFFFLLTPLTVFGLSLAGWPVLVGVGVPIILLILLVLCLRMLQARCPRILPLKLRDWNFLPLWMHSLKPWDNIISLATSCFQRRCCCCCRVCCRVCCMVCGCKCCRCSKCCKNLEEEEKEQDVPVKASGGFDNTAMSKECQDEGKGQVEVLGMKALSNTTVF
Method in brief: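 Rat NaPi-2b cloned from small-intestine cDNA; cRNA injected into Xenopus oocytes, expression for 2 days. Phosphate uptake inhibition measured with 32P; percent inhibition at 300 μM and 100 μM read from the same inhibition curve.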

SMILES	IC50
Cc1ccc(/C=N/NC(=O)c2cc(Cl)ccc2NC(=O)c2cccc(CN(C)CCCN(C)Cc3cccc(C(=O)Nc4ccc(Cl)cc4C(=O)N/N=C/c4ccc(C)c(C)c4)c3)c2)cc1C [Compound 684, N1-[4-Chloro-2-({2-[(E)-1-(3,4-dimethylphenyl)methylidene]hydrazino}carbonyl}phenyl}-3-{[{3-[(3-{[4-chloro-2-({2-[(E)-1-(3,4-dimethylphenyl)methylidene]hydrazino}carbonyl}anilino}carbonyl}benzyl}(methyl)amino)propyl](methyl)amino)methyl)benzamide]	54.3 µM
CN(CCCN(C)Cc1cccc(C(=O)Nc2ccc(Cl)cc2C(=O)N/N=C/c2cccc(F)c2)c1)Cc1cccc(C(=O)Nc2ccc(Cl)cc2C(=O)N/N=C/c2cccc(F)c2)c1 [Compound 685, N1-[4-Chloro-2-({2-[(E)-1-(3-fluorophenyl)methylidene]hydrazino}carbonyl}phenyl}-3-{[{3-[(3-{[4-chloro-2-({2-[(E)-1-(3-fluorophenyl)methylidene]hydrazino}carbonyl}-anilino}carbonyl}benzyl}(methyl)amino)propyl)(methyl)amino]methyl]-benzamide]	36.4 µM
O=C(Nc1ccc(Cl)cc1C(=O)N/N=C/c1ccc(Cl)c(C(F)(F)F)c1)c1cccc(CS(=O)(=O)Cc2ccco2)c1 [Compound 688, N-[4-Chloro-2-(4-chloro-3-trifluoromethyl-benzylidene-hydrazinocarbonyl)-phenyl]-3-(furan-2-ylmethanesulfonylmethyl)-benzamide]	< 3 µM
CN(CCCCCCN(C)Cc1cccc(C(=O)Nc2ccc(Cl)cc2C(=O)N/N=C/c2ccc(Cl)c(C(F)(F)F)c2)c1)Cc1cccc(C(=O)Nc2ccc(Cl)cc2C(=O)N/N=C/c2ccc(Cl)c(C(F)(F)F)c2)c1 [Compound 690, N1-[4-Chloro-2-({2-[(E)-1-(4-chloro-3-trifluoromethyl-phenyl)methylidene]hydrazino}carbonyl)phenyl)-3-{[{6-[(3-{[4-chloro-2-({2-[(E)-1-(4-chloro-3-trifluoromethyl-phenyl)methylidene]hydrazino}-carbonyl}anilino}carbonyl}benzyl}(methyl)amino)hexyl)(methyl)amino]-methyl]benzamide]	88 µM
O=C(Nc1ccc(Cl)cc1C(=O)N/N=C/c1cccc(F)c1)c1cccc(CSCCS(=O)(=O)O)c1 [Compound 691, 2-{3-[4-Chloro-2-(3-fluoro-benzylidene-hydrazinocarbonyl)-phenylcarbamoyl]-benzylsulfanyl}-ethanesulfonic acid]	97 µM
Cc1ccc(/C=N/NC(=O)c2cc(Cl)ccc2NC(=O)c2cccc(CSCCS(=O)(=O)O)c2)cc1C [Compound 694, 2-{3-[4-Chloro-2-(3,4-dimethyl-benzylidene-hydrazinocarbonyl)-phenylcarbamoyl]-benzylsulfanyl}-ethanesulfonic acid]	38.8 µM
O=c1c2cc(Br)ccc2nc(-c2cccc(CSCCO)c2)n1/N=C/c1ccc(F)cc1 [Compound 695, 6-Bromo-3-[(4-fluoro-benzylidene-)-amino]-2-[3-(2-hydroxy-ethylsulfanylmethyl)-phenyl]-3H-quinazolin-4-one]	6.76 µM
Cc1ccc(/C=N/n2c(-c3cccc(CSCCO)c3)nc3ccc(Br)cc3c2=O)cc1 [Compound 696, 6-Bromo-2-[3-(2-hydroxy-ethylsulfanylmethyl)-phenyl]-3-[(4-methyl-benzylidene-)-amino]-3H-quinazolin-4-one]	4.47 µM
Cc1ccc(/C=N/n2c(-c3cccc(CSCCO)c3)nc3ccc(Br)cc3c2=O)cc1C [Compound 697, 6-Bromo-3-[(3,4-dimethyl-benzylidene-)-amino]-2-[3-(2-hydroxy-ethylsulfanylmethyl)-phenyl]-3H-quinazolin-4-one]	< 3 µM
O=c1c2cc(Br)ccc2nc(-c2cccc(CSCCO)c2)n1/N=C/c1ccc(Cl)c(C(F)(F)F)c1 [Compound 698, 6-Bromo-3-[(4-chloro-3-trifluoromethyl-benzylidene-)-amino]-2-[3-(2-hydroxy-ethylsulfanylmethyl)-phenyl]-3H-quinazolin-4-one]	< 3 µM

The remaining lines, values ahead:

IC50	SMILES
12.5 µM	Cc1ccc(/C=N/NC(=O)c2cc(Cl)ccc2NC(=O)c2cccc(CSCc3ccco3)c2)cc1 [Compound 682, N-[4-Chloro-2-(4-methyl-benzylidene-hydrazinocarbonyl)-phenyl]-3-(furan-2-ylmethylsulfanylmethyl)-benzamide]
< 3 µM	Cc1ccc(/C=N/NC(=O)c2cc(Cl)ccc2NC(=O)c2cccc(CSCc3ccco3)c2)cc1C [Compound 683, N-[4-Chloro-2-(3,4-dimethyl-benzylidene-hydrazinocarbonyl)-phenyl]-3-(furan-2-ylmethylsulfanylmethyl)-benzamide]
< 3 µM	Cc1ccc(/C=N/NC(=O)c2cc(Cl)ccc2NC(=O)c2cccc(CS(=O)(=O)Cc3ccco3)c2)cc1C [Compound 686, N-[4-Chloro-2-(3,4-dimethyl-benzylidene-hydrazinocarbonyl)-phenyl]-3-(furan-2-ylmethanesulfonylmethyl)-benzamide]
< 3 µM	Cc1ccc(/C=N/NC(=O)c2cc(Cl)ccc2NC(=O)c2cccc(C[S+]([O-])Cc3ccco3)c2)cc1C (stereo not shown) [Compound 687, N-[4-Chloro-2-(3,4-dimethyl-benzylidene-hydrazinocarbonyl)-phenyl]-3-(furan-2-ylmethanesulfinylmethyl)-benzamide]
< 3 µM	O=C(Nc1ccc(Cl)cc1C(=O)N/N=C/c1ccc(Cl)c(C(F)(F)F)c1)c1cccc(C[S+]([O-])Cc2ccco2)c1 (stereo not shown) [Compound 689, N-[4-Chloro-2-(4-chloro-3-trifluoromethyl-benzylidene-hydrazinocarbonyl)-phenyl]-3-(furan-2-ylmethanesulfinylmethyl)-benzamide]
99.4 µM	Cc1cccc(/C=N/NC(=O)c2cc(Cl)ccc2NC(=O)c2cccc(CSCCS(=O)(=O)O)c2)c1 [Compound 692, 2-{3-[4-Chloro-2-(3-methyl-benzylidene-hydrazinocarbonyl)-phenylcarbamoyl]-benzylsulfanyl}-ethanesulfonic acid]
70.2 µM	Cc1ccc(/C=N/NC(=O)c2cc(Cl)ccc2NC(=O)c2cccc(CSCCS(=O)(=O)O)c2)cc1 [Compound 693, 2-{3-[4-Chloro-2-(4-methyl-benzylidene-hydrazinocarbonyl)-phenylcarbamoyl]-benzylsulfanyl}-ethanesulfonic acid]

same assay, conditions: phosphate uptake, oocytes expressing rat NaPi-2b; 300 μM, determined from inhibition curve

inhibition at 300 µM	SMILES
58.4%	Cc1cccc(/C=N/NC(=O)c2cc(Cl)ccc2NC(=O)c2cccc(CSCc3ccco3)c2)c1 [Compound 699, N-[4-Chloro-2-(3-methyl-benzylidene-hydrazinocarbonyl)-phenyl]-3-(furan-2-ylmethylsulfanylmethyl)-benzamide]
40.3%	O=C(Nc1ccc(Cl)cc1C(=O)N/N=C/c1ccc(Cl)c(C(F)(F)F)c1)c1cccc(CSCc2ccco2)c1 [Compound 700, N-[4-Chloro-2-(4-chloro-3-trifluoromethyl-benzylidene-hydrazinocarbonyl)-phenyl]-3-(furan-2-ylmethylsulfanylmethyl)-benzamide]
